One assay concerns the target Human BACE-1 (Homo sapiens, UniProt P56817). Nature of the assay: Test 1: Inhibition of Human BACE-1. The conditions noted are these: mean IC50 values in Test 1; recombinant BACE-1, pH 4.5. The class given is biochemical. The protocol:
Test 1: Inhibition of Human BACE-1
IC50 values are calculated from percentage of inhibition of BACE-1 activity as a function of the test compound concentration.

For assay [1], the system named is Cellular Release of Amyloid Peptide 1-40. Description: Test 4: Inhibition of Cellular Release of Amyloid Peptide 1-40. The class given is cell-based, Chinese hamster. The conditions noted are these: Cricetulus griseus, 24 h; read-out: Amyloid-β1-40 release IC50. As to the method:
Chinese hamster ovary cells are transfected with the human gene for amyloid precursor protein. The cells are plated at a density of 8000 cells/well into 96-well microtiter plates and cultivated for 24 hours in DMEM cell culture medium containing 10% FCS. The test compound is added to the cells at various concentrations, and the cells are cultivated for 24 hours in the presence of the test compound. […] The potency of the compound is calculated from the percentage of inhibition of amyloid peptide release as a function of the test compound concentration.

The values below come from US20130281449A1, “Oxazine Derivatives and their Use in the Treatment of Neurological Disorders” (NOVARTIS AG, priority 2011, published 2013).

Chain of Human BACE-1 (P56817 46-457 limits assumed): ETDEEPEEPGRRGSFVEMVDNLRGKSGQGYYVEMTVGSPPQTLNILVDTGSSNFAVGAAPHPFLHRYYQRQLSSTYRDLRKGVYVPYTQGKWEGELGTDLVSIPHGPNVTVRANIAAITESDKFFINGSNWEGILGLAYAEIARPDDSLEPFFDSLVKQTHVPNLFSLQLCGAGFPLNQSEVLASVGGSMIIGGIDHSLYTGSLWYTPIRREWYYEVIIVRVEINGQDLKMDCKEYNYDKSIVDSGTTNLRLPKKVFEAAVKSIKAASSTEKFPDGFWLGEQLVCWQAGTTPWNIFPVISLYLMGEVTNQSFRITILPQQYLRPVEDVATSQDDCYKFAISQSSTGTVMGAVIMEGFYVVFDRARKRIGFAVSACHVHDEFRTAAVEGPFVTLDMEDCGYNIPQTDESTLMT

In the case of `N#Cc1cnc(C(=O)Nc2ccc(F)c([C@]3(CF)COC(CF)(CF)C(N)=N3)c2)c(Cl)c1` [Example 43, 3-Chloro-5-cyano-pyridine-2-carboxylic acid [3-((R)-5-amino-3,6,6-tris-fluoromethyl-3,6-dihydro-2H-[1,4]oxazin-3-yl)-4-fluoro-phenyl]-amide], the IC50 stood at 24 nM at Human BACE-1 and 22 nM in assay [1].

As to `COc1ccc(C(=O)Nc2ccc(F)c([C@]3(C)CO[C@@](C)(C(F)(F)F)C(N)=N3)c2)c(N)n1` [Example 44, 2-Amino-N-[3-((3R,6R)-5-amino-3,6-dimethyl-6-trifluoromethyl-3,6-dihydro-2H-[1,4]oxazin-3-yl)-4-fluoro-phenyl]-6-methoxy-nicotinamide], the 50% inhibitory concentration (IC50) is 220 nM on Human BACE-1 and 79 nM in assay [1].

As to `COc1ccc(C(=O)Nc2ccc(F)c([C@]3(C)CO[C@@](C)(C(F)(F)F)C(N)=N3)c2)c(Cl)n1` [Example 45, N-[3-((3R,6R)-5-Amino-3,6-dimethyl-6-trifluoromethyl-3,6-dihydro-2H-[1,4]oxazin-3-yl)-4-fluoro-phenyl]-2-chloro-6-methoxy-nicotinamide], the results for the IC50 (on Human BACE-1; in assay [1]) were 2600 nM and 720 nM, respectively.
